Structures are written as SMILES.

These results are taken from patent publication US20250360071A1, “AGENT FOR INDUCING CILIUM” (MED R&D Co. Ltd, priority 2022, published 2025).

The subject of one data set is hair cycle-related genes. In words: Fluctuation in expression of hair cycle-related genes from transcriptome, Experimental Example 9. Type of data set: in vivo, mouse. To be noted: dorsal skin, 20th day. The source says: A fluctuation in expression of the hair cycle-related genes was examined, based on the results of the transcriptome analysis in Experimental Example 6.

Another data set relates to C3H male mouse. In words: Hair growth promoting effect in vivo, application to depilated dorsal skin, Experimental Example 5. On the procedure: The oleanane-type triterpenoid was applied to the dorsal skin of a mouse and the hair growth promoting effect was examined. Maslinic acid was used as the oleanane-type triterpenoid. In addition, for comparison, a group in which minoxidil was used and a control group in which only a solvent was applied were prepared.
FIG. 12 is a schematic view showing an experimental schedule. After acclimatization of a C3H male mouse, the dorsal skin was depilated with a shaver and a depilatory cream. Thereafter, 150 μL of 1% minoxidil (n=8), 1% maslinic acid (n=6), or a solvent (n=8) was applied to the mouse in each group every day for 20 days, and the mouse was observed over time.
It is known that the hair cycle of a mouse has three stages of an anagen, a catagen, and a telogen. During the anagen (the 1st day to the 16th day), the hair follicle grows into the deep subcutaneous part. In the catagen (the 17th day to the 19th day), the hair follicle stops growing and regresses to the upper subcutaneous part. In the telogen (the 20th day to the 29th day), the hair shaft is in a state where it can be lost at any time. It is known that the color of the dorsal skin of a mouse changes to pink, gray, and black due to the hair cycle. FIG. 13 is a view showing a change in the color of the dorsal skin of a mouse due to the hair cycle.

Data set [1] concerns dorsal skin. In words: Gene ontology (GO), GO enrichment and tissue-specific expression analysis of transcriptome, Experimental Example 7. Type of data set: in vivo, mouse. Particulars: 20th day. As to the method: Gene ontology (GO) analysis and GO enrichment analysis were performed based on the results of the transcriptome analysis in Experimental Example 6.
Subsequently, term enrichment analysis of the genes with expression increased specifically with respect to the skin tissue was performed. Using tissue-specific expression analysis (TSEA), genes related to the skin tissue were filtered, and functions that were specifically enriched in the maslinic acid treatment group and the tieghemelin treatment group and were not enriched in the minoxidil treatment group were selected.

The test system of data set [2] is dorsal skin. In words: Fluorescence immunostaining of dorsal skin tissue sections, Experimental Example 10. Format: in vivo, mouse. To be noted: 20th day. The source says:
A mouse in each group of Experimental Examples 5 and 6 was euthanized on the 20th day, the dorsal skin was collected, and the tissue section was subjected to immunostaining.
FIG. 23 is a photomicrograph showing the results of detecting the expressions of β-catenin and K14 by fluorescence immunostaining. In addition, the nuclei were stained with 4′,6-diamidino-2-phenylindole (DAPI). The β-catenin is a hair growth promoting marker and is also a marker for the start of the anagen. K14 is an epidermal marker and is known to increase with the differentiation of hair follicle stem cells.
FIG. 24 is a photomicrograph showing the results of detecting the expression of VEGF by fluorescence immunostaining. In addition, the nuclei were stained with DAPI. VEGF is known to improve the vascularization of hair follicles, increase the size of hair follicles and hair, and promote the growth and circulation of hair follicles.

For data set [3], the system named is dorsal skin. The experiment in a line: Transcriptome analysis and extended network analysis of dorsal skin, Experimental Examples 6 and 8. Type of data set: in vivo, mouse. To be noted: 20th day, 1% applied daily; maslinic acid group vs tieghemelin group. On the procedure: A mouse in each group of Experimental Example 5 and a mouse in the group which had been subjected to the same treatment as in Experimental Example 5 using 1% tieghemelin (n=6) were euthanized on the 20th day, and the dorsal skin was collected and subjected to transcriptome analysis.
(§1) Extended network analysis was performed based on the results of the transcriptome analysis in Experimental Example 6. FIGS. 20 to 22 are views showing the results of the extended network analysis. FIG. 20 is an analysis result obtained from a dataset of the minoxidil treatment group, FIG. 21 is an analysis result obtained from a dataset of the maslinic acid treatment group, and FIG. 22 is an analysis result obtained from a dataset of the tieghemelin treatment group. In FIGS. 20 to 22, a white circle indicates a gene with increased expression, and a black circle indicates a gene with decreased expression. In addition, the size of the circle indicates the magnitude of a change in expression level.

The next data set has as its system Iqcb1. In words: Iqcb1 expression from transcriptome / extended network analysis, Experimental Example 8. Format: in vivo, mouse. Particulars: dorsal skin, 20th day, 1% applied daily. As to the method: as §1
DDX58 is an innate immune receptor that senses viral nucleic acids in the cytoplasm and activates a downstream signal transduction cascade leading to the production of type I interferons or inflammatory cytokines. IQCB1 is a protein known to be involved in formation of cilium.

The test system of the next data set is HFDPCs. The experiment in a line: Co-culture system of Caco-2 and HFDPC, hair growth marker expression, Experimental Example 4. Format: cell-based, human. Particulars: added inside the Caco-2 insert; saponin mixture 5 μg/mL, finasteride 10 μM; after 2, 6 and 12 hours; vs control. On the procedure: An examination was carried out using a co-culture system of Caco-2 and an HFDPC which are human intestinal epithelial cell lines. FIG. 8 is a schematic view illustrating a co-culture system of the present Experimental Example. […] A permeable membrane having a pore size of […] was disposed on the bottom surface of the 96-well insert. […] In a case where the drug is permeable to the intestinal epithelial cells, with the addition of the drug into the inside of the transwell insert of the co-culture system, the drug permeates from the apex side (lumen side) to the basal side (vascular side) of the Caco-2 cells. Furthermore, the drug that permeated acts on the HFDPCs seeded on the receiver plate. A mixture in which each saponin was mixed at a ratio shown in Table 1 below (which may hereinafter be referred to as a “saponin mixture”) was used as a sample for the examination. The saponin mixture was added to the inside of the transwell insert of the co-culture system so that a concentration thereof was 5 μg/mL. Subsequently, the expression of the hair growth marker in the HFDPCs seeded on the receiver plate was measured by quantitative real-time PCR after 2 hours, 6 hours, and 12 hours. As the hair growth markers, a CTNNB1 gene (β-catenin), an ALPL gene (alkaline phosphatase), and an FGF1 gene (fiblobrast growth factor 1) were measured. […]

[4] abbreviates: fluorescence immunostaining, dorsal skin.

For `CC1(C)CC[C@]2(C(=O)O)CC[C@]3(C)C(=CC[C@@H]4[C@@]5(C)C[C@@H](O)[C@H](O)C(C)(C)[C@@H]5CC[C@]43C)[C@@H]2C1` [maslinic acid], in the data set on hair cycle-related genes, the “expression level of BMP4” value is listed as “decreased” and the “expression of NF-κB” value is recorded as “decreased”. Besides, in the data set with C3H male mouse (10th day, 1% applied daily), the “black area indicating the late anagen, vs control group” value is “larger black area” and the “speed of a transition from the telogen to the anagen (order)” value is “Minoxidil≈Maslinic acid>Control group”. For the same molecule, in the data set with C3H male mouse (20th day, 1% applied daily), the “hair cycle stage observed on the 20th day” value is “transitioned to the next telogen”; the “speed of transition to the telogen after the anagen and the catagen (order)” value was “Minoxidil=Maslinic acid>Control group”. The “hair cycle stage observed on the 10th day” value in the data set with C3H male mouse (150 μL of 1% applied daily, control transitioned from telogen to anagen on the 10th day) was “transition to the late anagen”. Moreover, the “influence on the body weight of the mouse” value in the data set on C3H male mouse (150 μL of 1% applied to dorsal skin every day for 20 days) is listed as “No influence on the body weight”. In the data set on dorsal skin [1], the “number of genes with decreased expression common among the minoxidil, maslinic acid and tieghemelin treatment groups” value was determined as 316; the “number of genes with decreased expression common between the minoxidil and maslinic acid treatment groups” value is listed as “Seventy-two”; the “number of genes with increased expression common among the minoxidil, maslinic acid and tieghemelin treatment groups” value is recorded as 342; the “number of genes with increased expression common between the minoxidil and maslinic acid treatment groups” value is “Eighty-one”. In addition, in the data set on dorsal skin [1] (functions not enriched in the minoxidil treatment group), the “functions specifically enriched among skin-tissue genes with increased expression (TSEA)” value was “skin barriers, keratinocytes, proliferation of epithelial cells, pigmentation, and interactions between cytokines and cytokine receptors”. Besides, the “sizes of the hair follicle and the hair shaft” value in the data set with dorsal skin [2] (dorsal skin section) was “increased”. In the data set on dorsal skin [2] (setting [4]), the “expression of K14” value was “increase in the expression”, the “expression of VEGF” value is on record as “increased” and the “expression of β-catenin” value is listed as “increase in the expression”. Also, in the data set with dorsal skin [3], the “pattern of differentially expressed genes in the dorsal skins” value was “showed the same pattern”. Moreover, in the data set with Iqcb1, the Iqcb1 expression result was “upregulated” and the “expression level of Iqcb1 compared with the minoxidil treatment group” value is reported as “increased more”.
As to `CC(C)(C)NC(=O)[C@H]1CC[C@H]2[C@@H]3CC[C@H]4NC(=O)C=C[C@]4(C)[C@H]3CC[C@]12C` [finasteride], the “expression of the hair growth marker (CTNNB1, ALPL, FGF1) in HFDPCs” value in the data set on HFDPCs was “induced the expression of the hair growth marker regardless of the treatment time”.
